Laboratory results: ChEMBL document CHEMBL1201862, “PubChem BioAssay data set” (2004)
Activity calls are given as the source filed them.

Tests used:
[1] = viability loss in HeLa cells – cytotoxicity control for MgcRacGAP inhibitor project, dose response (AID 624300); format: functional
[2] = target: T1, Rac GTPase-activating protein 1 (Homo sapiens, UniProt Q9H0H5); test: blockers of MgcRacGAP-driven Rac1 GTP hydrolysis – biochemical, ADP Hunter fluorescence, primary and confirmatory, confirmation (AID 624330); format: functional
T1 sequence (Q9H0H5 whole entry): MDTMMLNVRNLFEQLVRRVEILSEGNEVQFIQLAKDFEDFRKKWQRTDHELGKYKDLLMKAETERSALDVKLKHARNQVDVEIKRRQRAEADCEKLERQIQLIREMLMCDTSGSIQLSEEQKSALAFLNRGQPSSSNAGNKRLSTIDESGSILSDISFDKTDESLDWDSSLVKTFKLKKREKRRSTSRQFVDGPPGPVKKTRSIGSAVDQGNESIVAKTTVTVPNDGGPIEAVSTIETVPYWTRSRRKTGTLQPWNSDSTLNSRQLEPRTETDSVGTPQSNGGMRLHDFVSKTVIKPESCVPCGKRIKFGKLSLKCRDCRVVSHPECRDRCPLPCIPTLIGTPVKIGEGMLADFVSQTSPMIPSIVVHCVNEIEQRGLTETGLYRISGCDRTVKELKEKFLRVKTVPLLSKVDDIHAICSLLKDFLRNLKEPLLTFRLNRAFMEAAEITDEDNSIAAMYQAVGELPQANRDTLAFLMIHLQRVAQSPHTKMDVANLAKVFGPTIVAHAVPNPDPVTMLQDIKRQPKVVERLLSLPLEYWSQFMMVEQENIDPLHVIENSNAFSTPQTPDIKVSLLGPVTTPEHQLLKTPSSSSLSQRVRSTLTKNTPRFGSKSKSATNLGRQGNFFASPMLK

[3] = target: T2, Sentrin-specific protease 7 (Homo sapiens, UniProt Q9BQF6); format: functional;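 note: Luminescence-based dose-response confirmation of ultra-high-throughput screening hits, measuring inhibition of SENP7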
T2 sequence (Q9BQF6 whole entry): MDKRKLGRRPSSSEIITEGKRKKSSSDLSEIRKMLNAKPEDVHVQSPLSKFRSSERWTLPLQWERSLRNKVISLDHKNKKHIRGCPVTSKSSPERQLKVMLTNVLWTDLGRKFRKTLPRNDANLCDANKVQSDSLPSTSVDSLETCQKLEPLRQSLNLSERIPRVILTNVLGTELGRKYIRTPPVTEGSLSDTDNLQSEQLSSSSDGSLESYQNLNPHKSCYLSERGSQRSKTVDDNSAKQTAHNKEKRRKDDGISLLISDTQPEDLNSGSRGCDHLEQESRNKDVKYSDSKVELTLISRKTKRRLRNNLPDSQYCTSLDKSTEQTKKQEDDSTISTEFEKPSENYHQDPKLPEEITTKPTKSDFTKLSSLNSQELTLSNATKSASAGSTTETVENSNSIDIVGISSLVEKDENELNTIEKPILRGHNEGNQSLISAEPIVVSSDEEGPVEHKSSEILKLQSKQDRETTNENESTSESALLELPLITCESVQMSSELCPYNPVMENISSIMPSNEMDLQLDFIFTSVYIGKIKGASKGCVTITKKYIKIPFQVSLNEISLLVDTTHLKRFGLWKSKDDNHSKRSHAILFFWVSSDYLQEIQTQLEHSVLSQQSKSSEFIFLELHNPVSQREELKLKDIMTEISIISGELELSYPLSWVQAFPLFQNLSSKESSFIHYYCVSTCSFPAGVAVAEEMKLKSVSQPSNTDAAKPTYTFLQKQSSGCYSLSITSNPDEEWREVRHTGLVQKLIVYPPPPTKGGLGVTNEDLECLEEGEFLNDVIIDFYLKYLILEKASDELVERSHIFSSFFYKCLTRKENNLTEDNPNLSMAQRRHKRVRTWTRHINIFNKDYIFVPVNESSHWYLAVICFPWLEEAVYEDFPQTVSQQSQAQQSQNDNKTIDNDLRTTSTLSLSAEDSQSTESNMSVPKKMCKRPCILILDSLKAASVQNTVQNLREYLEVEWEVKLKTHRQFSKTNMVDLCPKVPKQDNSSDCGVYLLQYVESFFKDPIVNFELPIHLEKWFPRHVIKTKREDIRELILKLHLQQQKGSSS

[4] = target: T3, Sentrin-specific protease 6 (Homo sapiens, UniProt Q9GZR1); format: functional;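 note: Luminescence-based dose-response confirmatory assay of SENP6 inhibition, following up an ultra-high-throughput screen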
T3 sequence (Q9GZR1 whole entry): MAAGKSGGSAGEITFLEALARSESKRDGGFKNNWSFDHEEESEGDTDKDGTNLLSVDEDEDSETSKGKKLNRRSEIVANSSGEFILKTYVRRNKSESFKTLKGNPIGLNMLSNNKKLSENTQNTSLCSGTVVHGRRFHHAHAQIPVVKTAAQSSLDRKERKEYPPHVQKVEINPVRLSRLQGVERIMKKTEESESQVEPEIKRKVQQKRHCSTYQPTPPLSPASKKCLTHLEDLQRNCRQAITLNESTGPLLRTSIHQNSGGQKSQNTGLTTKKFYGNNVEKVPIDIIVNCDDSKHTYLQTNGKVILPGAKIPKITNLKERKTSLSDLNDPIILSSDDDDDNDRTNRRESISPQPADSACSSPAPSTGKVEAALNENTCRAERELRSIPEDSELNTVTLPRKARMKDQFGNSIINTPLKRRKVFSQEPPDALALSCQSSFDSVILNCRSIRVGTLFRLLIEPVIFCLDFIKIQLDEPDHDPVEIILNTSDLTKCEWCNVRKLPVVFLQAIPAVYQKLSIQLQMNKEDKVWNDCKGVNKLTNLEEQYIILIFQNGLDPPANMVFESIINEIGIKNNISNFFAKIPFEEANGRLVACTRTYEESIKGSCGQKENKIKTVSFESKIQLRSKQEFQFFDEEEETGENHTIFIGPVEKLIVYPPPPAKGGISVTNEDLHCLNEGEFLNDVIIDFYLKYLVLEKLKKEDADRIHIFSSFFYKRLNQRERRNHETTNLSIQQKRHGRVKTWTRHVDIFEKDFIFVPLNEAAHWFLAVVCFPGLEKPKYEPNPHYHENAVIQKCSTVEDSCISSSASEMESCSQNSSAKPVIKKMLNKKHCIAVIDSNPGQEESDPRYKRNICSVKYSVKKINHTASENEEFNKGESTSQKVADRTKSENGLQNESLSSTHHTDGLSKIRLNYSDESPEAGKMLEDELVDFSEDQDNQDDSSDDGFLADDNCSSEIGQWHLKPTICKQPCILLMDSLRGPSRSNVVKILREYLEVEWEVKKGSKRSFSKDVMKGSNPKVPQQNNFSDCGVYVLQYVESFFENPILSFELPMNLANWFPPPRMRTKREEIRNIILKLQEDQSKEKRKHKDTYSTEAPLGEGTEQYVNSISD

[5] = target: T4, Sentrin-specific protease 8 (Homo sapiens, UniProt Q96LD8); format: functional;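 note: luminescence read-out of SENP8 inhibition, dose-response confirmation following an ultra-high-throughput screen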
T4 sequence (Q96LD8 whole entry): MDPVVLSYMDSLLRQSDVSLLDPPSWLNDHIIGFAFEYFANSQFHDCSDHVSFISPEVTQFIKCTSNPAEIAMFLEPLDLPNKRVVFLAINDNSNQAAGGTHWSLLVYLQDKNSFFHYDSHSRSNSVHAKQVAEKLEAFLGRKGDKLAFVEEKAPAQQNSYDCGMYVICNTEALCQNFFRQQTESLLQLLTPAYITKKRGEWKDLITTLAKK

Caspase-3 = target: T5, Caspase-3 (Homo sapiens, UniProt P42574); format: functional;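 note: Dose-response selectivity test against caspase-3 for candidate inhibitors of sentrin-specific proteases (SENPs)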
T5 sequence (P42574 whole entry): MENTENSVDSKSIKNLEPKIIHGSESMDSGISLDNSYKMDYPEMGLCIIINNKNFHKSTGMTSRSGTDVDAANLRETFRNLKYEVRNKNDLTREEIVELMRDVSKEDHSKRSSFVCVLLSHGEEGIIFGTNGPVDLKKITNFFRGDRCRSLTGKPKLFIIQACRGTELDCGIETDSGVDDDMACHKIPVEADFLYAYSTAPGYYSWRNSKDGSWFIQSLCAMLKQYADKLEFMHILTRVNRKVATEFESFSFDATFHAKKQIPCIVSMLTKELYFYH

[6] = tested on: Streptococcus sp. 'group A'; test: Streptococcus pyogenes SK(-)GAS viability under kanamycin – luminescence, BacTiterGlo, confirmation, counter-screen for streptokinase expression inhibitor project, dose response (AID 1900); format: functional, organism-based
Streptococcus = test: GAS UMAA2166 growth inhibition – luminescence, BacTiterGlo, counter-screen for streptokinase expression inhibitor project, dose response (AID 1915); format: functional, organism-based;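 note: potency for reduction of bacterial viability or growth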
Streptokinase A = target: T6, Streptokinase A (Streptococcus pyogenes serotype M1, UniProt P10520); test: viability-normalized secreted streptokinase activity reduction – plasminogen activation absorbance, OD405, dose response (AID 1914); format: functional, Streptococcus pyogenes M1 GAS;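 note: secreted streptokinase activity via plasminogen activation per viability signal from cell pellet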
T6 sequence (P10520 whole entry): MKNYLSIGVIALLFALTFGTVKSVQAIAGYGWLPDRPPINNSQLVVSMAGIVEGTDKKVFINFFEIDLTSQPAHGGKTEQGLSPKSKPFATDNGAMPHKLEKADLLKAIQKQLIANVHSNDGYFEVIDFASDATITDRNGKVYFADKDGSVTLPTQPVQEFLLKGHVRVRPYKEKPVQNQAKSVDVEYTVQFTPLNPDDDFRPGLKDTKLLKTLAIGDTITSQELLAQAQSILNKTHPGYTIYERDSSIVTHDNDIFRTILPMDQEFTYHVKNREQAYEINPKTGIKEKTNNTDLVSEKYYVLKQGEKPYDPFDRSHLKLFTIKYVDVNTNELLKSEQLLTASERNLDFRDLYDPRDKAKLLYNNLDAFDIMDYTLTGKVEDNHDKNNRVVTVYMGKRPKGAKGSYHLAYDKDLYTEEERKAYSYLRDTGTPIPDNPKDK

[7] = HIV-1 AD8 envelope cell-cell fusion blockers – cherry-pick, dose response (AID 652062); format: functional, cell-based;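 note: luciferase signal from cell-cell fusion driven by HIV-1 clade B AD8 Env; potency is for inhibitors of fusion seen as a drop in luminescence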
[8] = blockers of HIV-1 ZM109 envelope-driven cell-cell fusion – HeLa effector, CEM target cells, luciferase, cherry-pick, dose response (AID 652058); format: functional, cell-based;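 note: luciferase signal from HIV-1 Env mediated cell-cell fusion of effector and target cells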
[9] = off-target signal loss in HeLa-CEM21 co-culture – HeLa F-luc CTL cells, cherry-picked, counter-screen for HIV-1 Env fusion inhibitor project, dose response (AID 652040); format: functional, cell-based;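 note: potency for signal decrease marking cytotoxic or nonspecific inhibition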
[10] = blockers of HIV-1 envelope-mediated cell-cell fusion – cherry-pick, dose response (AID 652057); format: functional, cell-based
Paired box protein Pax-8 = Paired box protein Pax-8 (Homo sapiens, UniProt Q06710); test: PAX8 transcriptional activity inhibition in RMG-I – RMG-I cells, luciferase, cherry-pick, dose response (AID 687027); format: functional, cell-based;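 note: luciferase reporter driven by Pax8 target thyroperoxidase promoter measured by SteadyGlo luminescence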
Sequence of Paired box protein Pax-8 (Q06710 whole entry): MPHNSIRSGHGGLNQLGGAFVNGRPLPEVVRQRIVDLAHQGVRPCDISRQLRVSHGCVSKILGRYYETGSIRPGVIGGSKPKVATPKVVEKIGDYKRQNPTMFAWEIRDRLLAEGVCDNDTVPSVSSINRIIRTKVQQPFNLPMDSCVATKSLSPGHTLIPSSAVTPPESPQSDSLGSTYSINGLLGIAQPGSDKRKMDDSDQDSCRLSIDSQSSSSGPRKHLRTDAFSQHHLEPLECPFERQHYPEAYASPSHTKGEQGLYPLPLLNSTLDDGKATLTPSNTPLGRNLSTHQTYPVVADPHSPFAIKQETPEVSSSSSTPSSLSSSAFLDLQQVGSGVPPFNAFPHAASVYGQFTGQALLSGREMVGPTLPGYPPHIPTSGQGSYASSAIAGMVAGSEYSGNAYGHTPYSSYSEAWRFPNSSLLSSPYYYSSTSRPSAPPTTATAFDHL

[11] = Luminescence Cell-Based Dose Response HTS to Identify Activators of Luciferase Translation or Activity in H4 […] Cells. [Related pubchem assays: 1829 (Project Summary), 1814 (Primary HTS)]; format: functional
[12] = Luminescence Cell-Based Dose Confirmation HTS to Identify Activators of 5'UTR Stem-Loop Driven Alpha-Synuclein mRNA Translation in H4 Neuroglioblastoma Cells. [Related pubchem assays: 1829 (Project Summary), 1814 (Primary HTS)]; format: functional
H4 = test: Luminescence Cell-Based Dose Response HTS to Identify Activators of 5'UTR Stem-Loop Driven Prion Protein mRNA Translation in H4 Neuroglioblastoma Cells. [Related pubchem assays: 1829 (Project Summary), 1814 (Primary HTS)]; format: functional; conditions: Homo sapiens
[13] = T. cruzi growth inhibition in host cells, dose response, cell-based, plate reader, dry powder, set 2 (AID 652275); format: functional

SMILES: COc1cc(C(C[N+](=O)[O-])c2c(N)n(C)c(=O)n(C)c2=O)ccc1O (stereo not drawn)
- CC50 [1]: 80.4 µM (active)
- IC50 [2]: 111 µM (active)

SMILES: Cc1ccccc1-c1nc2sc3c(c2c(=O)o1)CCC3
- IC50 [3]: 2.23 µM (active)
- IC50 [4]: 3.42 µM (active)
- IC50 [5]: > 100 µM (inactive)
- IC50 (Caspase-3): 1.73 µM (active)

SMILES: CCn1c(SCc2ccccc2Cl)nc2ccccc21
- IC50 [3]: 11.3 µM (active)
- IC50 [4]: 17.5 µM (active)
- IC50 [5]: 29.3 µM (active)
- EC50 [6]: 16.5 µM (active)
- EC50 (Streptococcus): > 150 µM (not active)
- EC50 (Streptokinase A): 21.4 µM (active)
- IC50 (Caspase-3): 40.6 µM (active)

SMILES: COc1ccc(NC(=O)Nc2ccc3c(c2)N(C)C(=O)CS3)cc1Cl
- AC50 [7]: 11.8 µM (active)
- AC50 [8]: 3.37 µM (active)
- AC50 [9]: > 70 µM (inactive)
- AC50 [10]: 31.1 µM (active)

SMILES: Cc1ccc2c(c1)c1c3n2CCN(CC(N)=O)C3CCC1 (stereo not drawn)
- AC50 (Paired box protein Pax-8): 6.82 µM (active)
- AC50 [9]: 7.87 µM (active)

SMILES: COc1cc(-c2ncc3ccccn23)cc(OC)c1OC
- CC50 [1]: 100 µM (active)
- IC50 [2]: 123 µM (active)

SMILES: Cc1cccc(C(=N)NOC(=O)N2c3ccccc3Sc3ccccc32)c1
- EC50 [11]: > 120 µM (not active)
- CC50 [1]: 92.6 µM (active)
- EC50 [12]: > 120 µM (not active)
- EC50 (H4): > 120 µM (not active)

SMILES: Cc1ccccc1S(=O)(=O)N1C[C@H]2[C@H]3C(=O)N(C4CCCCC4)C(=O)[C@H]3CC(=O)[C@H]2[C@@H]1c1ccc(Cl)cc1
- AC50 [7]: 2.81 µM (active)
- AC50 [8]: 0.874 µM (active)
- AC50 [9]: 1.2 µM (active)
- AC50 [10]: 0.396 µM (active)

SMILES: COc1ccc(S(=O)(=O)N(C)C[C@H]2OCCCC[C@H](C)Oc3ccc(N(C)C)cc3C(=O)N([C@H](C)CO)C[C@@H]2C)cc1
- AC50 [13]: 9.32 µM (active)

SMILES: CN(C[C@H](Cc1ccccc1)N(C[C@H](Cc1ccccc1)N(CC1(c2ccccc2)CC1)N=O)N=O)N=O
- AC50 [7]: 7.28 µM (active)
- AC50 [8]: 3.53 µM (active)
- AC50 [9]: 3.05 µM (active)
- AC50 [10]: 2.98 µM (active)

SMILES: Cc1ccccc1CN(C)C[C@H]1Oc2c(NC(=O)c3ccncc3)cccc2C(=O)N([C@@H](C)CO)C[C@@H]1C
- AC50 [13]: 0.0559 µM (active)

SMILES: CC(C)N1C[C@@H](CN(C)Cc2ccc(Cl)cc2)Oc2c(NC(=O)c3ccncc3)cc(F)cc2C1=O
- AC50 [13]: 0.00326 µM (active)

SMILES: CN(C)CC#Cc1cccc(-c2nc(C(=O)N3CCN(Cc4ccccc4)CC3)cc3c2[C@H](CCO)N([S+]([O-])C(C)(C)C)C3)c1 (stereo partly drawn)
- AC50 [13]: 6.1 µM (active)

SMILES: COc1ccc2nc(/C=N/NC(=O)[C@H](C)NC(=O)OC(C)(C)C)ccc2c1
- IC50 (cells): 31.9 µM (active)
